Here are results for 12 compounds from US12006328B2, “Thieno[2,3-d]pyrimidin-4-one derivatives as NMDAR modulators and uses related thereto” (Emory University, priority 2014, dated 2024).

The test system of one experiment is hippocampal CA1 neurons. In words: Hippocampal slice whole cell recordings. Type of experiment: cell-based, mice. The source says:
Coronal hippocampal brain slices were made from mice (p7-14) using a vibrotome. During slice cutting and recovery, the slices were bathed in an artificial cerebral spinal fluid (slicing aCSF—containing, in mM: 75 NaCl, 2.5 KCl, 1.25 NaH2PO4, 25 NaHCO3, 5 MgCl2 or MgSO4, 0.5 CaCl2, 20 Glucose, 70 Sucrose). Whole cell recordings were made using a different aCSF (recording aCSF—containing, in mM: 130 NaCl, 2.5 KCl, 1.25 NaH2PO4, 25 NaHCO3, 0.1 MgCl2 or MgSO4, 2.5 CaCl2, 20 Glucose), and using a CsGlu internal solution containing, following (in mM): 110 d-gluconic acid, 110 CsOH, 30 CsCl, 5 HEPES, 4 NaCl, 0.5 CaCl2, 2 MgCl2, 5 BAPTA, 2 Na2ATP, and 0.3 NaGTP (pH 7.35).

Experiment [1] concerns the target T1, GluN1/GluN2B expressing HEK293 cells (Homo sapiens, UniProt Q13224).
T1 construct: expressed in transfected cells; host or cells: HEK293
Nature of the experiment: Rapid solution exchange patch clamp in transfected HEK293 cells. Type of experiment: cell-based. The procedure: HEK293 cells were transfected used the CaPO4 method. Cells were patched 1-3 days later and lifted into the flow from a theta tube perfusion. […] NMDA receptor currents were activated using 100 μM glutamate and 30 μM glycine.
On the technique in general: Patch clamp records ionic current or voltage across a cell membrane.

In experiment [2] the target is GluN2C-containing NMDA receptors (Homo sapiens, UniProt Q05586+Q14957). Nature of the experiment: Two-electrode voltage-clamp recordings from Xenopus laevis oocytes, GluN2C. Type of experiment: cell-based. As to conditions: Table 6; read-out: IC50 (μM) Glu N2C. In outline: (§1)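 Xenopus oocytes expressing NMDA receptor subunits recorded by two-electrode voltage clamp 2–7 days after cRNA injection, in solution with 90 NaCl, 3 KCl, 10 HEPES, 0.5 BaCl2, 0.01 EDTA (mM), pH 7.4. Increasing compound concentrations applied with glutamate (100 μM) and glycine (30 μM); response expressed as percent of compound-free response.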
GluN2C-containing NMDA receptors (Homo sapiens, UniProt Q05586+Q14957), sequence (Q14957 20-1233, other chains not shown): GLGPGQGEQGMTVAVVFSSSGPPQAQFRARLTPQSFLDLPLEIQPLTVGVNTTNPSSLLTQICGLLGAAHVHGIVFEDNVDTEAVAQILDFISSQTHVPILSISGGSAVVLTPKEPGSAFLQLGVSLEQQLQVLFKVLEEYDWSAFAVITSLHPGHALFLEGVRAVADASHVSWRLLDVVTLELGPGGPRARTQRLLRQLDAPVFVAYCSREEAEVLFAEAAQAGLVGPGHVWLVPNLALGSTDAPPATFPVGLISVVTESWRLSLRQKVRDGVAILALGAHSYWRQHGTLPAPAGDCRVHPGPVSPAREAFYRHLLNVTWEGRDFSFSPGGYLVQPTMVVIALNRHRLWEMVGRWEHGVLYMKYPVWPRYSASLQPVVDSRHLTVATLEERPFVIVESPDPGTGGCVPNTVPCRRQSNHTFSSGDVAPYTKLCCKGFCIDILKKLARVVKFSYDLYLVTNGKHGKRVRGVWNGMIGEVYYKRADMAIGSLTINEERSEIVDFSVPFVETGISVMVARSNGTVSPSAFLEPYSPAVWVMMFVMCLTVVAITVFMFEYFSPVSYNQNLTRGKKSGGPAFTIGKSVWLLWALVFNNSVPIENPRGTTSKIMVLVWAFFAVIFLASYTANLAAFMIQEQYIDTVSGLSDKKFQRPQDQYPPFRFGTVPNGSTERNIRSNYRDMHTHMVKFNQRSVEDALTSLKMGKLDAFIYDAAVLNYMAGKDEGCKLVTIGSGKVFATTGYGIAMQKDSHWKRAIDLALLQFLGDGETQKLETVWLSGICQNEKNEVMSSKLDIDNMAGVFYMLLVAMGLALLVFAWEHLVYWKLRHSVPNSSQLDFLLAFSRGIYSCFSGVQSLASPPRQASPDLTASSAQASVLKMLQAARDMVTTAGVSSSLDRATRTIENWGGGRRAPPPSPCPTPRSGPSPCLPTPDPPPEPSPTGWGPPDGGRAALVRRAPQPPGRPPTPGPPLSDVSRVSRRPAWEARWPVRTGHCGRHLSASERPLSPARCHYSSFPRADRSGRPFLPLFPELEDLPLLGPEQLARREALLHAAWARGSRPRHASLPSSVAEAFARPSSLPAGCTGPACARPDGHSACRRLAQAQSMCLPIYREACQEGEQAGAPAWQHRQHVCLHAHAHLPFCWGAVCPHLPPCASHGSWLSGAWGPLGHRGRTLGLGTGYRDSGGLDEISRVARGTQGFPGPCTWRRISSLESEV

For experiment [3], the target named is GluN2D-containing NMDA receptors (Homo sapiens, UniProt O15399+Q05586). Nature of the experiment: Two-electrode voltage-clamp recordings from Xenopus laevis oocytes, GluN2D. The experiment is classed as cell-based. As to conditions: Table 6; read-out: IC50 (μM) Glu N2D. The procedure, abridged: as §1
GluN2D-containing NMDA receptors (Homo sapiens, UniProt O15399+Q05586), sequence (O15399 28-1336, other chains not shown): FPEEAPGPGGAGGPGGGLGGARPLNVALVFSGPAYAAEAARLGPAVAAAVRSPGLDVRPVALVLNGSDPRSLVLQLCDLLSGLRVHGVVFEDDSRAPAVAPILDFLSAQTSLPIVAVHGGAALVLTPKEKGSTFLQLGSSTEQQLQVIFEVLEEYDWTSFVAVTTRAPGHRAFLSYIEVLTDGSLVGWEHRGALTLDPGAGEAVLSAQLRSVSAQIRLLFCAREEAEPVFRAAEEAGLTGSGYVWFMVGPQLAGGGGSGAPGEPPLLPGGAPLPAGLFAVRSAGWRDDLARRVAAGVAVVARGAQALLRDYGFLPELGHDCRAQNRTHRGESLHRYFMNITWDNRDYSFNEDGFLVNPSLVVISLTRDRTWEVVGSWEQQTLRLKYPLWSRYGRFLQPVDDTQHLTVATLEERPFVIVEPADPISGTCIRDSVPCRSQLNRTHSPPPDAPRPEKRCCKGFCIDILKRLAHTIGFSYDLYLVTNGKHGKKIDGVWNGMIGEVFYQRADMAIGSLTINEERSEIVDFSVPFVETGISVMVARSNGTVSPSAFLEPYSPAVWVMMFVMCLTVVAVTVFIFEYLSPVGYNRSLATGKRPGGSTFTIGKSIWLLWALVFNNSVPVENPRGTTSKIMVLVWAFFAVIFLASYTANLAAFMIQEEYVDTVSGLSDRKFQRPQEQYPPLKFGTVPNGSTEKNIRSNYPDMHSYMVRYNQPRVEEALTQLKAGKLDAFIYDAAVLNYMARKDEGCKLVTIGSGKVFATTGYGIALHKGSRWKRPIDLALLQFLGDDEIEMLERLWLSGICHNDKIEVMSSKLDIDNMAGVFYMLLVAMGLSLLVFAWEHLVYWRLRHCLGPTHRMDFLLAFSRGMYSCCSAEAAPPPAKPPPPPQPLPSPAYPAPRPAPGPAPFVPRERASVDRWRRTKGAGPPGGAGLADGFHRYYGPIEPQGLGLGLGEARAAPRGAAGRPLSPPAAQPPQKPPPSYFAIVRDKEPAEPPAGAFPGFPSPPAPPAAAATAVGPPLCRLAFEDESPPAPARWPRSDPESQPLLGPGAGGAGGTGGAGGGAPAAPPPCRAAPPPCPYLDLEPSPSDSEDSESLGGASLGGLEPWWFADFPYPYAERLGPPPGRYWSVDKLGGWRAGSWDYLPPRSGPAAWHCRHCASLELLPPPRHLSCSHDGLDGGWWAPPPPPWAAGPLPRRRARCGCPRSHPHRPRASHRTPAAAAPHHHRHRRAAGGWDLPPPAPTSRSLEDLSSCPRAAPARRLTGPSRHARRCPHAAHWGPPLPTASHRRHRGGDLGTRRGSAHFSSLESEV
Experiment [4] concerns the target GluN2B-containing NMDA receptors (Homo sapiens, UniProt Q13224). In words: Two-electrode voltage-clamp recordings from Xenopus laevis oocytes, GluN2B. Type of experiment: cell-based. As to conditions: for % response at 100 μM, Glu N2B: Table 6, printed in the IC50 column, 100 μM compound; for EC50: read-out: EC50 Glu N2B; for maximal potentiation Glu N2B / I10 μM/ICONTROL (mean ± SEM, %) Glu N2B: percent of response without compound; for I10 μM/ICONTROL (mean ± SEM, %) Glu N2B: 10 μM test compound with glutamate 100 μM and glycine 30 μM, Tables 1-5. In outline:
as §1
(In two-electrode clamp one electrode senses voltage and the other passes current.)

The target of experiment [5] is GluN2C-containing NMDA receptors (Homo sapiens, UniProt Q14957). Nature of the experiment: Two-electrode voltage-clamp recordings from Xenopus laevis oocytes, GluN2C. Type of experiment: cell-based. As to conditions: for EC50: read-out: EC50 Glu N2C; for maximal potentiation Glu N2C / I10 μM/ICONTROL (mean ± SEM, %) Glu N2C: percent of response without compound; for I10 μM/ICONTROL (mean ± SEM, %) Glu N2C: 10 μM test compound with glutamate 100 μM and glycine 30 μM, Tables 1-5. In outline: as §1
GluN2C-containing NMDA receptors (Homo sapiens, UniProt Q14957), sequence (Q14957 20-1233, other chains not shown): as the sequence (Q14957 20-1233, other chains not shown) above

For experiment [6], the target named is GluN2D-containing NMDA receptors (Homo sapiens, UniProt O15399). In words: Two-electrode voltage-clamp recordings from Xenopus laevis oocytes, GluN2D. As to conditions: for EC50: read-out: EC50 Glu N2D; for maximal potentiation Glu N2D / I10 μM/ICONTROL (mean ± SEM, %) Glu N2D: percent of response without compound; for I10 μM/ICONTROL (mean ± SEM, %) Glu N2D: 10 μM test compound with glutamate 100 μM and glycine 30 μM, Tables 1-5. The experiment is classed as cell-based. The procedure, abridged:
as §1

The mark [7] stands for this setting: 1622-35 10 μM versus control, N 4.
[8] abbreviates: Table 1, glutamate 100 μM, glycine 30 μM, Hill fit.
The mark [9] stands for this setting: Table 1, in brackets after EC50.
The mark [10] stands for this setting: Table 2, in brackets below IC50.

GluN2D-containing NMDA receptors (Homo sapiens, UniProt O15399), sequence (O15399 28-1336, other chains not shown): as the sequence (O15399 28-1336, other chains not shown) above
GluN2B-containing NMDA receptors, sequence (Q13224 27-1484, other chains not shown): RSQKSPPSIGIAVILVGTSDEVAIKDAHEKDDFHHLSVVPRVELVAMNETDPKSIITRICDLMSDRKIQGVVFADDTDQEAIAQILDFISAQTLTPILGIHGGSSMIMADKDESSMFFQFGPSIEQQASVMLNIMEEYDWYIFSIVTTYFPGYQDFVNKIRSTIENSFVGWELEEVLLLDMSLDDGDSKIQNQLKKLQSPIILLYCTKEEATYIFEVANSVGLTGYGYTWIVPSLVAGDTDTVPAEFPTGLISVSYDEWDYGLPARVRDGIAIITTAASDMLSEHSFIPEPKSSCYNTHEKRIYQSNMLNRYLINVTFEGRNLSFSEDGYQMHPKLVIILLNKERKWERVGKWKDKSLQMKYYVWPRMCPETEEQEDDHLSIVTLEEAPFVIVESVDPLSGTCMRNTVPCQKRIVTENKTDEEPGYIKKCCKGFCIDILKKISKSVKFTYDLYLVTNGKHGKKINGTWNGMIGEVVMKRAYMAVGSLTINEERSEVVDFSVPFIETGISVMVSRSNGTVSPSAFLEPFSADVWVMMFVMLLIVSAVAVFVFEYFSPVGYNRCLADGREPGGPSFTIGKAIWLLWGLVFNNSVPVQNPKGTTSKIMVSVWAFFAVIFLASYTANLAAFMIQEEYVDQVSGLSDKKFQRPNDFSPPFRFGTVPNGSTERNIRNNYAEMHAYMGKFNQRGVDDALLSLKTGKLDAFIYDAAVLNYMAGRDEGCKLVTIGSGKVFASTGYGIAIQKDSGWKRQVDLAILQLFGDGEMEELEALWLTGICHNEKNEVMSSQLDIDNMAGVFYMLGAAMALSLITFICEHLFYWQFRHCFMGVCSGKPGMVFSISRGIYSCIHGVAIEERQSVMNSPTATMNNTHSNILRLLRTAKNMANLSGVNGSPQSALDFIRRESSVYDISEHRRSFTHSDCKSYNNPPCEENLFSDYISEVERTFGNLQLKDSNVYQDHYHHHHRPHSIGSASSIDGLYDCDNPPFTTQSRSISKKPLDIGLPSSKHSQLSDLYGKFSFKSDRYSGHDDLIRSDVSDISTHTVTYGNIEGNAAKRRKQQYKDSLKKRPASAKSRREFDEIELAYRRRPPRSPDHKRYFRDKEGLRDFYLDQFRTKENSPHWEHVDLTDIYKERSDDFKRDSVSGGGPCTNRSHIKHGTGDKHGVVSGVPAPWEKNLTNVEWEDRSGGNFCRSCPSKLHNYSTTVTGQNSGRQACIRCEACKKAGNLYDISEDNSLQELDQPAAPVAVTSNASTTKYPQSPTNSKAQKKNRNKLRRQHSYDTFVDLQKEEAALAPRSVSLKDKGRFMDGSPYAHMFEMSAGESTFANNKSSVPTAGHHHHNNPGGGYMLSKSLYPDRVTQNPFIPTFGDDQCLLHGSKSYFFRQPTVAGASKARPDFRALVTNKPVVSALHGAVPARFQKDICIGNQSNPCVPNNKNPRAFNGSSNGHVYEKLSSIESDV

Turning to `Cc1sc2ncn(CC(=O)N3CCCC3)c(=O)c2c1-c1cccc(I)c1` [Compound 1622-35], in the experiment on hippocampal CA1 neurons, the “effect on CA1 EPSPs during theta burst stimulation” value is “enhances the NMDA components of CA1 EPSPs” and the “effect on sEPSCs in hippocampal pyramidal neurons” value is recorded as “potentiates only the NMDA component of the sEPSCs”. In addition, in the experiment with hippocampal CA1 neurons (10 μM 1622-35), the “total charge transfer of EPSCs” value was 2.3 times greater than control. Also, the “time course of excitatory post synaptic currents” value in the experiment on hippocampal CA1 neurons (10 μM 1622-35, n=4, control 280±30 ms) was determined as 970 ± 220 ms. In addition, the “effect on channel function and deactivation, excised outside-out patch” value in experiment [1] (30 μM 1622-35) was “increases in GluN1/GluN2 channel function and slows deactivation”. In addition, in experiment [1] (setting [7]), the “Decay Time Constant, Fold Increase” value amounted to 5.7 ± 1.9 fold and the “Peak Amplitude, Fold Increase” value is given as 3.4 ± 0.6 fold. In experiment [1] (1622-35 10 μM, 100 μM glutamate, 30 μM glycine, control 628 ± 237, N 4), the “Peak Amplitude (pA)” value worked out at 1694 ± 417 pA. Further, in experiment [1] (1622-35 10 μM, 100 μM glutamate, 30 μM glycine, control 681 ± 142, N 4), the “Decay Time Constant” value came to 3037 ± 166 ms. For the same compound, the “prolonged deactivation of NMDA-Rs” value in experiment [1] (rapid solution exchange electrophysiology) is “roughly 3 fold”.
Consider `COCCN1Cc2c(sc(C)c2C)N(C(=O)c2ccc(OC)cc2)C1`, for which the IC50 in experiment [2] is 46 µM; in experiment [3], 109 µM. Besides, in experiment [4], the “% response at 100 μM, Glu N2B” value was found to be 86% response at 100 μM.
Regarding `COc1ccc(C(=O)N2CN(CC3CCCO3)Cc3c2sc(C)c3C)cc1` (stereo not drawn), the IC50 in experiment [2] is 6 µM; in experiment [3] it was 35 µM. The “% response at 100 μM, Glu N2B” value in experiment [4] was 92% response at 100 μM.
As to `Cc1sc2ncn(CC(=O)N3CCCC3)c(=O)c2c1-c1ccc(F)cc1` [4-F—Ph / Me], the EC50 in experiment [5] (setting [8]) is 81 µM; in experiment [6] (setting [8]), 124 µM; in experiment [4] (setting [8]), 54 µM. In addition, the “maximal potentiation Glu N2C” value in experiment [5] (setting [9]) was found to be 448%. Besides, the “maximal potentiation Glu N2D” value in experiment [6] (setting [9]) came out at 428%. In experiment [4] (setting [9]), the “maximal potentiation Glu N2B” value stood at 213%.
On to `Cc1sc2ncn(CC(=O)Oc3ccccc3)c(=O)c2c1-c1cccc(Cl)c1` [1 / 3-Cl—Ph / Me / OPh], for which, in experiment [5], the “I10 μM/ICONTROL (mean ± SEM, %) Glu N2C” value was 110 ± 5.9%. Further, in experiment [6], the “I10 μM/ICONTROL (mean ± SEM, %) Glu N2D” value is reported as 89 ± 1.6%. Moreover, in experiment [4], the “I10 μM/ICONTROL (mean ± SEM, %) Glu N2B” value stood at 96 ± 2.6%.
As to `Cc1sc2ncn(CC(=O)c3cccs3)c(=O)c2c1-c1cccc(I)c1` [1 / 3-I—Ph / Me / 2-thiophene], in experiment [5], the “I10 μM/ICONTROL (mean ± SEM, %) Glu N2C” value is reported as 180 ± 10.7%. Moreover, the IC50 was 9.3 µM in experiment [5] (Table 2, glutamate 100 μM, glycine 30 μM, Hill fit, read-out: IC50 Glu N2C); 11 µM in experiment [6] (Table 2, glutamate 100 μM, glycine 30 μM, Hill fit, read-out: IC50 Glu N2D); 7.7 µM in experiment [4] (Table 2, glutamate 100 μM, glycine 30 μM, Hill fit, read-out: IC50 Glu N2B). Further, the “maximal potentiation Glu N2C” value in experiment [5] (setting [10]) is “(255) %”. The “I10 μM/ICONTROL (mean ± SEM, %) Glu N2D” value in experiment [6] is reported as 177 ± 7.0%. In experiment [6] (setting [10]), the “maximal potentiation Glu N2D” value is recorded as “(262) %”. In addition, the “I10 μM/ICONTROL (mean ± SEM, %) Glu N2B” value in experiment [4] amounted to 129 ± 4.5%. The “maximal potentiation Glu N2B” value in experiment [4] (setting [10]) is given as “(147) %”.
Turning to `Cc1sc2ncn(CC(=O)NCC(=O)O)c(=O)c2c1-c1ccc(Cl)cc1` [1 / 4-Cl—Ph / Me / —NHCH2COOH], the “I10 μM/ICONTROL (mean ± SEM, %) Glu N2C” value in experiment [5] is given as 105 ± 3.7%. Also, the “I10 μM/ICONTROL (mean ± SEM, %) Glu N2D” value in experiment [6] is given as 93 ± 1.8%. For the same compound, the “I10 μM/ICONTROL (mean ± SEM, %) Glu N2B” value in experiment [4] is recorded as 87 ± 1.3%.
Regarding `Cc1sc2ncn(CC(=O)N3CCCC3)c(=O)c2c1-c1ccc(N)cc1` [4-NH2—Ph / Me], the “I10 μM/ICONTROL (mean ± SEM, %) Glu N2C” value in experiment [5] came out at 116 ± 4.5%. In experiment [6], the “I10 μM/ICONTROL (mean ± SEM, %) Glu N2D” value is reported as 103 ± 2.2%. Moreover, the “I10 μM/ICONTROL (mean ± SEM, %) Glu N2B” value in experiment [4] was determined as 104 ± 1.7%.
For the compound `CCc1ccc(-c2csc3ncn(CC(=O)N4CCCC4)c(=O)c23)cc1` [4-Et—Ph / H], the EC50 stood at 66 µM in experiment [5] (setting [8]), 58 µM in experiment [6] (setting [8]) and 39 µM in experiment [4] (setting [8]). Also, the “maximal potentiation Glu N2C” value in experiment [5] (setting [9]) was 417%. Besides, in experiment [6] (setting [9]), the “maximal potentiation Glu N2D” value was determined as 355%. Further, the “maximal potentiation Glu N2B” value in experiment [4] (setting [9]) is 223%.
Turning to `Cc1ccc(-c2c(C)sc3ncn(CC(=O)N4CCCC4)c(=O)c23)cc1C` [3,4-Me—Ph / Me], the EC50 in experiment [5] (setting [8]) amounted to 27 µM; in experiment [6] (setting [8]), 18 µM; in experiment [4] (setting [8]) it was 7.9 µM. For the same compound, the “maximal potentiation Glu N2C” value in experiment [5] (setting [9]) is given as 267%. Further, in experiment [6] (setting [9]), the “maximal potentiation Glu N2D” value is 229%. Besides, the “maximal potentiation Glu N2B” value in experiment [4] (setting [9]) is recorded as 192%.
For `CC(C)c1ccc(-c2csc3ncn(CC(=O)N4CCCC4)c(=O)c23)cc1` [4-^iPr—Ph / H], the “I10 μM/ICONTROL (mean ± SEM, %) Glu N2C” value in experiment [5] was determined as 100 ± 2.5%. Further, the “I10 μM/ICONTROL (mean ± SEM, %) Glu N2D” value in experiment [6] is given as 98 ± 1.4%. In addition, the “I10 μM/ICONTROL (mean ± SEM, %) Glu N2B” value in experiment [4] turned out to be 121 ± 6.9%. Besides, the EC50 in experiment [4] (setting [8]) was found to be 33 µM. For the same compound, the “maximal potentiation Glu N2B” value in experiment [4] (setting [9]) is reported as 174%.
Regarding `Cc1sc2ncn(CCC(=O)Oc3ccccc3)c(=O)c2c1-c1cccc(Cl)c1` [2 / 3-Cl—Ph / Me / OPh], the “I10 μM/ICONTROL (mean ± SEM, %) Glu N2C” value in experiment [5] turned out to be 91 ± 1.1%. In experiment [6], the “I10 μM/ICONTROL (mean ± SEM, %) Glu N2D” value was 88 ± 2.4%. The “I10 μM/ICONTROL (mean ± SEM, %) Glu N2B” value in experiment [4] is 104 ± 3.6%.

One may read the IC50 as the concentration needed to halve the response being measured. For orientation: EC50 means the concentration giving half of the maximal effect.
